From patent publication US20250075179A1, “METHODS FOR INCREASING VIRAL TRANSDUCTION OF CELLS” (Trustees of Dartmouth College, priority 2021, published 2025)

Key:
Format in all cases: cell-based
[1] = test system: human naïve B cells
[2] = test system: human naïve B cells; test: Antibody class switching of naïve B cells after statin treatment, flow cytometry on Day 14; details: 5 μM Rosuvastatin 48 hours, then culture to Day 14, versus PBS control, FIG. 3
Experimental: As noted above, statins and other agents should not substantially reduce target cell activity and function. One function of naïve B cells is the ability to engage in antibody class switching. […] Specifically, human naïve B cells were isolated and cultured as described above in Example 1. Cells were plated at a density of 1×10^5 cells B cells per 6 well with 1×10^4 feeder cells plated the previous day. The dual culture was grown in the media and cytokine mix described above with or without 5 μM Rosuvastatin. After 48 hours of treatment, media was changed and cells were allowed to continue growing in the media and fresh cytokines. Every 3-4 days half of the media was removed and replaced with fresh media and cytokines at 1× concentration. Cells were trypsinized and split 1:5 at day 7. Subclass of expressed antibody was assessed by flow cytometry on Day 14.

[3] = test system: human naïve B cells; test: LDL-R antibody enhancement of lentiviral transduction of B cells in feeder culture, GFP by flow cytometry; details: 48 hour 5 μM Rosuvastatin

## CC(C)c1nc(N(C)S(C)(=O)=O)nc(-c2ccc(F)cc2)c1/C=C/[C@@H](O)C[C@@H](O)CC(=O)O [rosuvastatin]
[1]
  B cell transduction percentage, some replicates: exceeding 90%
  GFP expression compared to B cells not treated with the statin or not transduced: substantially higher
  average B cell transduction percentage as measured by GFP expression, between technical replicates: 80%
  transduction relative to B cells not incubated with rosuvastatin: about 100 fold
[2]
  percent of B cells expressing the measured subclasses of antibody (class switching): did not alter
[3]; GFP+ virus, feeder culture + 250 ng/ml IL-2, no LDL-R antibody
  Median Fluorescence Intensity: 9.5
[3]; GFP+ virus, feeder culture + 250 ng/ml IL-2, with anti-mouse LDL-R antibody 2 μg/mL
  Median Fluorescence Intensity: 10
[3]; GFP− virus (control virus), feeder culture + 250 ng/ml IL-2, no LDL-R antibody
  Median Fluorescence Intensity: 3
